{"source": "ChEMBL document CHEMBL1201862", "about": "“PubChem BioAssay data set” (2004)", "assay_in_all_cases": "growth of human tumour cells (NCI), 48 h", "key": {"HCC 2998": {"system": "HCC 2998"}, "NCI-H23": {"system": "NCI-H23"}, "RXF 393": {"system": "RXF 393"}, "OVCAR-5": {"system": "OVCAR-5"}, "SNB-19": {"system": "SNB-19"}, "SN12C": {"system": "SN12C"}, "MDA-N": {"system": "MDA-N"}, "IGROV-1": {"system": "IGROV-1"}, "KM12": {"system": "KM12"}, "UO-31": {"system": "UO-31"}, "HT-29": {"system": "HT-29"}, "786-0": {"system": "786-0"}, "SF-268": {"system": "SF-268"}, "A498": {"system": "A498"}, "SF-295": {"system": "SF-295"}, "T47D": {"system": "T47D"}, "OVCAR-3": {"system": "OVCAR-3"}, "HCT-15": {"system": "HCT-15"}, "COLO 205": {"system": "COLO 205"}, "Hs-578T": {"system": "Hs-578T"}, "PC-3": {"system": "PC-3"}, "RPMI-8226": {"system": "RPMI-8226"}, "SK-OV-3": {"system": "SK-OV-3"}, "MOLT-4": {"system": "MOLT-4"}, "EKVX": {"system": "EKVX"}, "DU-145": {"system": "DU-145"}, "U-251": {"system": "U-251"}, "MDA-MB-231": {"system": "MDA-MB-231"}, "MDA-MB-435": {"system": "MDA-MB-435"}, "K562": {"system": "K562"}, "NCI-H226": {"system": "NCI-H226"}, "SK-MEL-28": {"system": "SK-MEL-28"}, "NCI-H460": {"system": "NCI-H460"}, "HOP-62": {"system": "HOP-62"}, "Malme-3M": {"system": "Malme-3M"}, "NCI/ADR-RES": {"system": "NCI/ADR-RES"}, "OVCAR-4": {"system": "OVCAR-4"}, "HCT-116": {"system": "HCT-116"}, "HL-60": {"system": "HL-60"}, "MCF7": {"system": "MCF7"}, "LOX IMVI": {"system": "LOX IMVI"}, "OVCAR-8": {"system": "OVCAR-8"}, "SNB-75": {"system": "SNB-75"}, "A549": {"system": "A549"}, "SR": {"system": "SR"}, "SK-MEL-2": {"system": "SK-MEL-2"}, "ACHN": {"system": "ACHN"}, "SF-539": {"system": "SF-539"}, "HOP-92": {"system": "HOP-92"}, "TK-10": {"system": "TK-10"}, "M14": {"system": "M14"}, "UACC-257": {"system": "UACC-257"}, "CAKI-1": {"system": "CAKI-1"}, "UACC-62": {"system": "UACC-62"}, "SW-620": {"system": "SW-620"}}, "note": "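Following 48 hours of exposure in 96-well plates, responses at five concentrations were used to interpolate endpoints linearly. The concentration for 50% growth inhibition is given as GI50.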 Activity calls are given as the source filed them. Cut-off read from the data, not from the text of the source: active = GI50 up to about 1.1 µM and inactive = higher."}
{"smiles": "CO/N=C\\c1ccc2c(c1)Sc1ccccc1O2", "values": [{"measurement": "GI50", "setting": "HCC 2998", "result": "45.7 µM (inactive)"}, {"measurement": "GI50", "setting": "NCI-H23", "result": "63 µM (inactive)"}, {"measurement": "GI50", "setting": "RXF 393", "result": "27.5 µM (inactive)"}, {"measurement": "GI50", "setting": "OVCAR-5", "result": "48.2 µM (inactive)"}, {"measurement": "GI50", "setting": "SNB-19", "result": "> 100 µM (inactive)"}, {"measurement": "GI50", "setting": "SN12C", "result": "> 100 µM (inactive)"}, {"measurement": "GI50", "setting": "MDA-N", "result": "47.2 µM (inactive)"}, {"measurement": "GI50", "setting": "IGROV-1", "result": "62.4 µM (inactive)"}, {"measurement": "GI50", "setting": "KM12", "result": "42.3 µM (inactive)"}, {"measurement": "GI50", "setting": "UO-31", "result": "58.3 µM (inactive)"}, {"measurement": "GI50", "setting": "HT-29", "result": "33.1 µM (inactive)"}, {"measurement": "GI50", "setting": "786-0", "result": "69.5 µM (inactive)"}, {"measurement": "GI50", "setting": "SF-268", "result": "72.3 µM (inactive)"}, {"measurement": "GI50", "setting": "A498", "result": "> 100 µM (inactive)"}, {"measurement": "GI50", "setting": "SF-295", "result": "36.3 µM (inactive)"}, {"measurement": "GI50", "setting": "T47D", "result": "24.5 µM (inactive)"}, {"measurement": "GI50", "setting": "OVCAR-3", "result": "> 100 µM (inactive)"}, {"measurement": "GI50", "setting": "HCT-15", "result": 28.5, "unit": "µM"}, {"measurement": "GI50", "setting": "COLO 205", "result": "66.4 µM (inactive)"}, {"measurement": "GI50", "setting": "Hs-578T", "result": "30.9 µM (inactive)"}, {"measurement": "GI50", "setting": "PC-3", "result": "51.9 µM (inactive)"}, {"measurement": "GI50", "setting": "RPMI-8226", "result": "55.7 µM (inactive)"}, {"measurement": "GI50", "setting": "SK-OV-3", "result": "> 100 µM (inactive)"}, {"measurement": "GI50", "setting": "MOLT-4", "result": "54.7 µM (inactive)"}, {"measurement": "GI50", "setting": "EKVX", "result": "30.2 µM (inactive)"}, {"measurement": "GI50", "setting": "DU-145", "result": "> 100 µM (inactive)"}, {"measurement": "GI50", "setting": "U-251", "result": "54.5 µM (inactive)"}, {"measurement": "GI50", "setting": "MDA-MB-231", "result": "> 100 µM (inactive)"}, {"measurement": "GI50", "setting": "MDA-MB-435", "result": "29.9 µM (inactive)"}, {"measurement": "GI50", "setting": "K562", "result": "51.8 µM (inactive)"}, {"measurement": "GI50", "setting": "NCI-H226", "result": "> 100 µM (inactive)"}, {"measurement": "GI50", "setting": "SK-MEL-28", "result": "> 100 µM (inactive)"}, {"measurement": "GI50", "setting": "NCI-H460", "result": "40.2 µM (inactive)"}, {"measurement": "GI50", "setting": "HOP-62", "result": "> 100 µM (inactive)"}, {"measurement": "GI50", "setting": "Malme-3M", "result": "31.4 µM (inactive)"}, {"measurement": "GI50", "setting": "NCI/ADR-RES", "result": "90.6 µM (inactive)"}, {"measurement": "GI50", "setting": "OVCAR-4", "result": "43.9 µM (inactive)"}, {"measurement": "GI50", "setting": "HCT-116", "result": "40.3 µM (inactive)"}, {"measurement": "GI50", "setting": "HL-60", "result": "26.2 µM (inactive)"}, {"measurement": "GI50", "setting": "MCF7", "result": "34.7 µM (inactive)"}, {"measurement": "GI50", "setting": "LOX IMVI", "result": "53.5 µM (inactive)"}, {"measurement": "GI50", "setting": "OVCAR-8", "result": "95.9 µM (inactive)"}, {"measurement": "GI50", "setting": "SNB-75", "result": "52.5 µM (inactive)"}, {"measurement": "GI50", "setting": "A549", "result": "44.8 µM (inactive)"}, {"measurement": "GI50", "setting": "SR", "result": "23.4 µM (inactive)"}, {"measurement": "GI50", "setting": "SK-MEL-2", "result": "35.1 µM (inactive)"}, {"measurement": "GI50", "setting": "ACHN", "result": "> 100 µM (inactive)"}, {"measurement": "GI50", "setting": "SF-539", "result": "40.7 µM (inactive)"}, {"measurement": "GI50", "setting": "HOP-92", "result": "36.4 µM (inactive)"}, {"measurement": "GI50", "setting": "TK-10", "result": "> 100 µM (inactive)"}, {"measurement": "GI50", "setting": "M14", "result": "30.5 µM (inactive)"}, {"measurement": "GI50", "setting": "UACC-257", "result": "57 µM (inactive)"}, {"measurement": "GI50", "setting": "CAKI-1", "result": "> 100 µM (inactive)"}, {"measurement": "GI50", "setting": "UACC-62", "result": "71.1 µM (inactive)"}, {"measurement": "GI50", "setting": "SW-620", "result": "73.8 µM (inactive)"}]}
